Assay results from US20240173324A1, “COMBINATORY THERAPY FOR PREVENTING, INHIBITING, TREATING, OR REDUCING ANEURYSMS” (The Regents of the University of California, priority 2021, published 2024).
“And” between values parts separate entries of the source, which are not always exact repeats. Equal entries are not always repeated.

Columns and labels:
AAA formation = conditions: both low and high dose of Nifedipine alone; earlier study; cited from earlier work
[1] = tested on: Ang II infused apoE null mice; experiment: Incidence of AAA in Ang II infused apoE null mice (ultrasound and post-mortem inspection); type: in vivo
Description: The use of animals and experimental procedures were approved by the Institutional Animal Care and Usage Committee (IACUC) at the University of California Los Angeles (UCLA). Breeders of apoE null mice were purchased from Jackson Labs (Bar Harbor, ME, Strain B6.129P2-ApoEtmlUnc/J), and bred in house. Animals were kept in ventilated cages, with free access to water and standard chow under the standard care of Division of Laboratory Animal Medicine (DLAM) staff. Male apoE null mice of 6-8 months old were used for experimentation.
The animals receiving Ang II infusion were anesthetized in an isoflurane chamber with 5% isoflurane, and then moved to a nose cone with sustained supply of 1.5-2% isoflurane to maintain the anesthetic state. The back area between the shoulder blades was cleaned of hair and disinfected. Then a small incision was made at the cleaned site; the osmotic minipump (Alzet, model 2004) containing Ang II (1000 ng/kg/min, Sigma-Millipore, St. Louis, MO, USA) was subcutaneously implanted into the mice. The surgical wounds were closed with surgical staples, and then animals were allowed to recover in a heated cage.
At the end of the study period of 4 weeks, animals were euthanized with CO2. The aortas were rapidly removed from the body, rinsed with ice cold Krebs/HEPES buffer, and cleaned of connective tissue and fat. The incidence of AAA was determined by ultrasound assessment of abdominal aortic expansion as described above, and by direct inspection of the abdominal aortas post-mortem.

[2] = tested on: Ang II infused apoE null mice; experiment: Ultrasound detection of abdominal aortic size (enlargement of abdominal aortas); type: in vivo; conditions: FA 15 mg/kg/day oral; weekly ultrasound over 4 weeks; vs. apoE+Ang II
Protocol: The back area between the shoulder blades was cleaned of hair and disinfected. Then a small incision was made at the cleaned site; the osmotic minipump (Alzet, model 2004) containing Ang II (1000 ng/kg/min, Sigma-Millipore, St. Louis, MO, USA) was subcutaneously implanted into the mice. The surgical wounds were closed with surgical staples, and then animals were allowed to recover in a heated cage. […] The enlargement of abdominal aortas in various experimental groups was monitored using ultrasound. Animals were anesthetized with isoflurane and placed on a temperature-controlled table. Isoflurane levels were adjusted throughout the experiment to maintain heart rate between 400 and 500 bpm while keeping the animal sufficiently anesthetized. Hair was removed from the abdomen using a hair removal cream, and preheated ultrasound transmission gel was applied onto the abdomen area. An ultrasound probe was placed on the gel to visualize aorta transversely (Vevo 2100, MS400, 30 MHz. FUJIFILM VisualSonics, Inc., Toronto, Ontario, Canada). The aorta was identified using Doppler measurement for the presence of pulsatile flow.

[3] = tested on: Ang II infused apoE null mice; experiment: H&E staining of aortic sections, vascular remodeling; type: in vivo; conditions: FA 15 mg/kg/day oral
Description: To examine the extent of the vascular remodeling that occurred during AAA in the presence of various treatments, freshly isolated aortas were embedded in paraffin, sectioned and stained with hematoxylin-eosin (H&E).
At the end of the study period of 4 weeks, animals were euthanized with CO2. The aortas were rapidly removed from the body, rinsed with ice cold Krebs/HEPES buffer, and cleaned of connective tissue and fat. […] For histological analyses, small sections (5 mm) of the abdominal aortas of the suprarenal region were removed and fixed in 4% paraformaldehyde overnight, followed by incubation for 24 hours in 10% sucrose, and then embedded in paraffin. In the case of AAA, a center section of the AAA was used for these analyses. Sections were sliced at 5μm at UCLA Pathology Core, and subjected to hematoxylin-eosin (H&E) staining following standard protocol.

[4] = tested on: Ang II infused apoE null mice; experiment: Verhoeff-Van Gieson (VVG) staining, medial elastin degradation; type: in vivo; conditions: FA 15 mg/kg/day oral
Protocol: To assess medial elastin degradation, VVG staining was performed using aortic sections from all experimental groups.
Paraffin embedded aortic sections were deparaffinized by sequential washes in xylene (2x), descending ethanol from 100%, 90%, 75% to 50%, and distilled water. Sections were stained in Verhoeff s solution for 70 min, followed by differentiation in 2% ferric chloride for 90 seconds. Sections were incubated with 5% sodium thiosulfate for 60 seconds, followed by counterstaining with Van Gieson's solution. Sections were then subjected to dehydration with 95% and 100% alcohol, and finally washed in xylene. After drying, sections were mounted with Permount mounting media (SP15-100, Thermo-Fisher Scientific, Pittsburgh, PA, USA), and images captured by a Nikon TE2000-U fluorescent microscope.

[5] = tested on: total superoxide production in aortas; experiment: Electron spin resonance determination of total aortic superoxide production; type: in vivo, mice; conditions: FA 15 mg/kg/day oral; ESR
Description: Therefore, changes in aortic total superoxide production and eNOS uncoupling activity from all treatment groups is examined herein. Freshly prepared aortic lysates were subjected to electron spin resonance (ESR) determination of superoxide production with and without L-NAME, an inhibitor of NOS. If eNOS is functional and coupled, its inhibition by L-NAME will increase the measured superoxide, as eNOS is producing NO to scavenge superoxide. However, if eNOS is dysfunctional, uncoupled and producing superoxide, its inhibition with L-NAME will lead to a decrease in measured superoxide.
Aortic superoxide production was determined by electron spin resonance (ESR). In brief, freshly isolated aortas were homogenized in lysis buffer containing 1:100 protease inhibitor cocktail (MilliporeSigma, P8340), centrifuged at 12,000 rpm for 15 min, and protein supernatant collected. After determination of protein concentration using a protein assay kit (Bio-Rad), five μg of the protein was loaded into ice-cold and nitrogen bubbled modified Krebs/HEPES buffer (KHB, in mmol/L: NaCl 99; KCl 4.7; MgSO41.2; KH2PO4 1.0; CaCl2 1.9; NaHCO3 25; glucose 11.1, NaHEPES 20) containing diethyldithiocarbamic acid (5 mmol/L), deferoxamine (25 mmol/L), and the superoxide specific spin trap methoxycarbonyl-2,2,5,5-tetramethylpyrrolidine (CMH, 500 μmol/L, Axxora, San Diego, CA, USA). […]

aortic H4B = experiment: HPLC determination of aortic H4B bioavailability; type: in vivo, mice; conditions: FA 15 mg/kg/day oral
Protocol: After centrifugation, 10 μl of the supernatant was injected into a HPLC system equipped with a fluorescent detector (Schimadzu America Inc, Carlsbad, CA, USA). Excitation and emission wavelengths of 350 nm and 450 nm were used to measure H4B levels.

[6] = tested on: Ang II infused hph-1 mice; conditions: oral FA administration; cited from earlier work
[7] = tested on: Ang II-infused apoE null mice; conditions: oral FA administration, previously observed; cited from earlier work
[8] = tested on: Fbnic1^C1039G/+ Marfan Syndrome (MFS) mice; conditions: FA diet; cited from earlier work

Compound	AAA formation (AAA formation)	incidence of AAA ([1]; FA 15 mg/kg/day oral in chow, 4 weeks Ang II infusion, Ang II alone 85.71%) [%]	numbers of animals developed AAA and animals examined ([1]; FA 15 mg/kg/day, b210 developed out of examined, b50 examined/developed)	enlargement of abdominal aortas [2]	vascular remodeling featured by elastic degradation and adventitial hypertrophy [3]	elastin degradation featured by flattening and breakdown [4]	total superoxide production in aortas [5]	Ang II induced H4B deficiency (aortic H4B)	AAA formation [6]	aneurysm formation [7]	formation of TAA and AAA [8]
COC(=O)C1=C(C)NC(C)=C(C(=O)OC)C1c1ccccc1[N+](=O)[O-] [Nifedipine]	able to attenuate AAA formation										
Nc1nc2ncc(CNc3ccc(C(=O)N[C@@H](CCC(=O)O)C(=O)O)cc3)nc2c(=O)[nH]1 [FA, folic acid]		18.75	6 out of 32 and 32/6	significantly attenuated	markedly attenuated	significantly attenuated	markedly abrogated	significantly abrogated	markedly attenuated	abrogated aneurysm formation	attenuated formation of TAA and AAA
